Source: patent US20060153894A1, “Multi-compartment delivery system” (priority 2004, published 2006)

Tested on: TNF-α secretion from LPS-stimulated PBMC
Assay: TNF-α secretion from LPS-stimulated PBMC with p38 inhibitor loaded in the outer compartment (ELISA)
Type: cell-based, human
Conditions: outer compartments loaded with 10.99 ng, 109.9 ng or 1099 ng, 1×10^6 PBMC on inner compartment, LPS 10 ng/ml overnight
Protocol: Outer compartments were made from a composite matrix similar to the one prepared in Example 3. The compartments were loaded with three different amounts (10.99 ng, 109.9 ng, or 1099 ng) of p38 kinase inhibitor (JNJ 3026582, also known as RWJ 67657). The chemical structure of this compound (4-[4-(4-fluorophenyl)-1-(3-phenylpropyl)-5-44-pyridinyl)-1H-imidazol-2-yl]-3-butyn-1-ol) has been previously documented (Wadsworth et al., J. Pharm. Exp. Ther 291:680-687, 1999).
The inner compartments were prepared from a non-woven Vicryl® fibrous matrix fabricated as described in Example 2. Mononuclear cells were freshly isolated from human peripheral blood, counted and adjusted to a final cell number in RPMI-1640 (Invitrogen Life Technologies, Carlsbad, Calif.) with 1% fetal bovine serum (FBS, HyClone, Logan, UT). A total of 1×10^6 cells in a final volume of 50ul were seeded onto the inner compartments.
The two compartments were combined and pre-cultured for 1 hour in a 24-well plate with 0.5 ml culture medium. A stimulus of LPS (lipopolysaccharide) (10 ng/ml; Sigma, St. Louis, Mo.) was added to each well and incubated overnight at 37° C., 5%CO2. Supernatant from each well was collected and analyzed for TNF-α content using a standard commercial ELISA kit (R&D Systems, Minneapolis, Minn.). […]

Structure (SMILES): OCCC#Cc1nc(-c2ccc(F)cc2)c(-c2ccncc2)n1CCCc1ccccc1 [RWJ 67657]
- inhibition of TNF-α secretion: dose dependent inhibition
- inhibition of TNF-α secretion (listed as p38 inhibitor): inhibited in a dose-dependent manner
